# Experimental data reported in the Deep4Chem optical property database.
# Experiment: photoluminescence quantum yield (fraction); solvent given as SMILES
smiles,measurement,setting,value
CCN1c2ccc(-c3cc(C(F)(F)F)[nH]n3)cc2Sc2cc(-c3cc(C(F)(F)F)[nH]n3)ccc21,photoluminescence quantum yield,in C1CCOC1,0.46
same,photoluminescence quantum yield,in CC#N,0.46
same,photoluminescence quantum yield,in CN(C)C=O,0.75
same,photoluminescence quantum yield,in ClCCl,0.56
same,photoluminescence quantum yield,in c1ccccc1,0.49
CCn1c2ccccc2sc2c(C#N)c3oc4ccccc4oc3c(C#N)c21,photoluminescence quantum yield,in ClC(Cl)Cl,0.23
CCOC(=O)CC[N+]1=c2cc3c(cc2CCC1)=Cc1c(c2cc4c5c(c2oc1=O)CCCN5CCC4)O3,photoluminescence quantum yield,in CC#N,0.024
same,photoluminescence quantum yield,in CO,0.017
same,photoluminescence quantum yield,in ClCCl,0.125
same,photoluminescence quantum yield,in O,0.002
C=Cc1cc2ccc(OC)cc2oc1=O,photoluminescence quantum yield,in CC#N,0.99
CC(C)(C)Nc1oc(C=Cc2ccccc2)c(C(=O)OC(C)(C)C)c1C(=O)OC(C)(C)C,photoluminescence quantum yield,in CC#N,0.311
N#Cc1ccc(/C=C/c2c3ccccc3cc3ccccc23)cc1,photoluminescence quantum yield,in CC1CCCCC1,0.27
same,photoluminescence quantum yield,in CC#N,0.003
same,photoluminescence quantum yield,in CO,0.029
same,photoluminescence quantum yield,in Cc1ccccc1,0.23
same,photoluminescence quantum yield,in ClC(Cl)Cl,0.05
CC(C)(C)c1ccc(N(c2ccc(C(C)(C)C)cc2)c2ccc(S(=O)(=O)c3ccc(N(c4ccc(C(C)(C)C)cc4)c4ccc(C(C)(C)C)cc4)cc3)cc2)cc1,photoluminescence quantum yield,in Cc1ccccc1,0.65
COc1ccc(N(c2ccc(OC)cc2)c2cc3ccc4cc(B(c5c(C)cc(C)cc5C)c5c(C)cc(C)cc5C)cc5ccc(c2)c3c45)cc1,photoluminescence quantum yield,in C1CCOC1,0.44
same,photoluminescence quantum yield,in CC(C)=O,0.21
same,photoluminescence quantum yield,in CCCCCC,0.22
same,photoluminescence quantum yield,in Cc1ccccc1,0.27
same,photoluminescence quantum yield,in ClC(Cl)Cl,0.23
same,photoluminescence quantum yield,in ClCCl,0.42
CCCCCCCCCCC(CCCCCCCCCC)Cn1c2cc(-c3ccc(C(C)(C)C)cc3)c3cccc4c5ccc6c7cc(-c8cc(C(C)(C)C)cc(C(C)(C)C)c8)n8c7c(c7cc1c(c5c76)c2c34)=C1C=CC(c2cc(C(C)(C)C)cc(C(C)(C)C)c2)=[N+]1[B-]8(F)F,photoluminescence quantum yield,in Cc1ccccc1,0.008
c1ccc(-c2nc(-c3ccccc3)nc(-c3ccccc3-n3c4ccccc4c4c5oc6ccccc6c5ccc43)n2)cc1,photoluminescence quantum yield,in O=P(c1ccccc1)(c1ccccc1)c1ccccc1Oc1ccccc1P(=O)(c1ccccc1)c1ccccc1,0.979
CCCCCCCCCCCCOc1cc2c3c(ccc4c5c(NC6CCCCC6)cc6c7c(ccc(c1c34)c75)C(=O)N(C1CCCCC1)C6=O)C(=O)N(C1CCCCC1)C2=O,photoluminescence quantum yield,in ClC(Cl)Cl,0.01
Cc1cc(-c2ccc(N(c3ccccc3)c3ccccc3)cc2)c2nsnc2c1-c1ccc(C(C)(C)C)cc1,photoluminescence quantum yield,in ClCCl,0.19
CCCCCCOc1cc(N(CC)CC)ccc1/C=C(\C#N)c1ccc(/C=C/C(=C(C#N)C#N)c2ccc(N(c3ccccc3)c3ccccc3)cc2)s1,photoluminescence quantum yield,in ClCCl,0.027
Clc1ccc(/C=C(\c2ccccc2)c2nc3ccccc3o2)cc1,photoluminescence quantum yield,in CO,0.002
COC(=O)C(Cc1ccc2oc(-c3ccc(-n4c5ccccc5c5ccccc54)cc3)nc2c1)NC(=O)OC(C)(C)C (stereo unspecified),photoluminescence quantum yield,in C1CCCCC1,0.94
same,photoluminescence quantum yield,in C1CCOC1,0.53
same,photoluminescence quantum yield,in C1COCCO1,0.62
same,photoluminescence quantum yield,in CC1CCCO1,0.52
same,photoluminescence quantum yield,in CC#N,0.46
same,photoluminescence quantum yield,in CC(C)(C)O,0.81
same,photoluminescence quantum yield,in CC(C)=O,0.44
same,photoluminescence quantum yield,in CC(C)CC(C)(C)C,0.55
same,photoluminescence quantum yield,in CC(C)O,0.59
same,photoluminescence quantum yield,in CC(O)CO,0.55
same,photoluminescence quantum yield,in CCCCCCCO,0.65
same,photoluminescence quantum yield,in CCCCCCO,0.73
same,photoluminescence quantum yield,in CCCCCO,0.77
same,photoluminescence quantum yield,in CCCCO,0.69
same,photoluminescence quantum yield,in CCO,0.63
same,photoluminescence quantum yield,in CCOC(C)=O,0.54
same,photoluminescence quantum yield,in CCOCC,0.56
same,photoluminescence quantum yield,in CN(C)C=O,0.58
same,photoluminescence quantum yield,in CO,0.36
same,photoluminescence quantum yield,in CS(C)=O,0.47
same,photoluminescence quantum yield,in Cc1ccccc1,0.69
same,photoluminescence quantum yield,in OCCO,0.52
CCOC(=O)CN1C(=O)C2=C(c3ccccc3)N(CC(=O)OCC)C(=O)C2=C1c1ccccc1,photoluminescence quantum yield,in CC#N,0.31
same,photoluminescence quantum yield,in CS(C)=O,0.56
same,photoluminescence quantum yield,in Cc1ccccc1,0.36
O=C1c2ccccc2C2=Cc3cccc[n+]3[B-](F)(F)N12,photoluminescence quantum yield,in ClCCl,0.47
CCOc1ccc2c(-c3nc(-c4cccc(C)c4)no3)cc(=O)oc2c1,photoluminescence quantum yield,in CCO,0.68
same,photoluminescence quantum yield,in ClC(Cl)Cl,0.23
COCc1ncc(-c2c3ccccc3c(-c3cnc(COC)nc3)c3ccccc23)cn1,photoluminescence quantum yield,in CCO,0.89
same,photoluminescence quantum yield,in ClCCl,0.83
CCCCCCc1ccc2c3c(ccc2c1)O[B-](F)(F)[N+](c1ccc([N+]2=Cc4c(ccc5cc(CCCCCC)ccc45)O[B-]2(F)F)cc1)=C3,photoluminescence quantum yield,in C1CCOC1,0.35
same,photoluminescence quantum yield,in CC#N,0.3
same,photoluminescence quantum yield,in Cc1ccccc1,0.43
same,photoluminescence quantum yield,in ClCCl,0.44
FC(F)(F)C(F)(F)C(F)(F)C(F)(F)C(F)(F)C(F)(F)CCOc1nnc(Cl)nn1,photoluminescence quantum yield,in ClCCl,0.4
same,photoluminescence quantum yield,in OCC(F)(F)F,0.26
